Assay [1] deals with T1, Purine nucleoside phosphorylase (Homo sapiens, UniProt P00491).
T1 sequence (P00491 whole entry): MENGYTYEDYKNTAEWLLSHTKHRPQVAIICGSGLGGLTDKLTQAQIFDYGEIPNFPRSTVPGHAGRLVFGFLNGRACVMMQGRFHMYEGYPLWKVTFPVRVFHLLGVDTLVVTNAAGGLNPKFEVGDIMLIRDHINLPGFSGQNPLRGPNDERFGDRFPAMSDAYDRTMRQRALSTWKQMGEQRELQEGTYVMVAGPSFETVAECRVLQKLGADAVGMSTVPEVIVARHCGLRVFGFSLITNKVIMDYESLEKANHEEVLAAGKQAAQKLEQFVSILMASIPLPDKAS
As to the kind of experiment: Inhibition of human purine nucleoside phosphorylase by xanthine-oxidase coupled assay.

Assay [2] deals with T1, Purine nucleoside phosphorylase. Briefly: Inhibition of human purine nucleoside phosphorylase assessed as slow onset inhibition constant by xanthine-oxidase coupled assay.

Each structure is given as a SMILES string. pKi: −log10 of the molar value.

Regarding `O=c1[nH]cnc2c(CN3C[C@H](O)[C@@](F)(CO)C3)c[nH]c12` [Immucillins, 1], the pKi (commonly the Ki on a negative log10 scale, so that one unit is a factor of ten) in assay [1] is 10.18; in assay [2], 9.30.

The values are drawn from BindingDB's records for doi:10.1021/jm800792b (Industrial Research, 2008).
